Source: patent US10858321B2, “Composition for inducing cell reprogramming” (GWANGJU INSTITUTE OF SCIENCE AND TECHNOLOGY, priority 2014, dated 2020)

Key:
C2C12 myoblasts = assay: MTT assay (cytotoxicity); type: cell-based, mouse; conditions: for IC50: C2C12 myoblasts, incubated 2 days with compound; for cytotoxicity: result in words, comparison with the indazole derivatives
Description: C2C12 myoblasts were seeded in a 96-well plate at a density of 3×10^3 cells per well. The cells were cultured for one day, and then treated with each compound. Next, the cells were incubated for 2 days, and then treated with a serum-free medium containing 3-(4,5-dimethylthiazol-2-yl)-2,5-diphenyltetrazolium bromide (MTT) for 3 hours. After removal of the medium, the cells were incubated in DMSO for 10 minutes while they were shaken. The absorbance at 570 nm was measured by a microreader (VersaMax, Molecular Devices) (see FIG. 4).

[1] = system: C2C12 mouse skeletal myoblasts; assay: Cell screening by Alizarin red staining (direct reprogramming of myoblasts into osteoblasts); type: cell-based; design: key to Alizarin red staining (osteoblasts): ++ (strong positive); + (weak positive); − (negative); conditions: for Alizarin red staining (osteoblasts): C2C12 myoblasts treated 72 hours with compound, then osteogenic differentiation inducing medium 14 days, reversine 100 nM; for reprogramming potential in differentiation into osteoblasts: Alizarin red staining, result in words
Description: A method for identifying compounds that induce cell reprogramming was based on a previous study (PMID: 23044010 and 18974773) on the myocyte-to-osteocyte conversion by bone formation induction and a previous reversine publication (Chen S 2004).
C2C12 mouse skeletal myoblasts were seeded in a 24-well cell culture dish at a density of 1×10^4 cells per well. 24 Hours after seeding, the compound of interest was added to three well at a concentration of […]. For a positive control, the cells were treated with 100 nM reversine or 2 μM BIO. The two compounds are known to induce the conversion of myoblasts to […] (Chen S 2004 and Kim WH recapitulate papers). For a negative control, the cells were untreated or treated with DMSO. The cells were treated with each compound for a total of 72 hours, and were further treated with each compound after 48 hours. The cytotoxicity of each compound could be confirmed from disappearance of a portion of the cells and from floating cell debris during culture, and a compound causing cytotoxicity was screened again at a concentration of 250 nM. After 72 hours, the medium was replaced with an osteogenic differentiation inducing medium (treated for 14 days with a DMEM supplemented with 10% FBS, […] ascorbic acid-2-phosphate, 0.1 μM dexamethasone, 10 mM β-glycerophosphate, 50 units/mL of penicillin, and […] streptomycin). The osteogenic differentiation inducing medium was based on one previously described in direct cell reprogramming (reversine papers, Chen S 2004 and Chen S 200/). Direct cell reprogramming from myocytes to osteocytes was analyzed by Alizarin red staining that detects calcium deposits (Gregory CA 2004 PMID: 15136169) in bone lineage cells.
Cells were washed once with PBS, and then fixed with phosphate-buffered formalin for 20 minutes. The fixed cells were washed with distilled water, and immersed in a solution of 1% Alizarin red-S in water for 5 minutes. The remaining dye was washed out with distilled water. The cells were dried, and then imaged with an optical microscope (CKX41 Olympus). The stained cells did look red, and a compound corresponding to such cells was selected as a ‘hit’ compound and further analyzed.

adipocytes = assay: Oil red O staining (differentiation into adipocytes); type: cell-based; design: key to Oil red O staining (adipocytes): ++ (strong positive); + (weak positive); − (negative); conditions: for reprogramming potential in differentiation into adipocytes: oil red O staining, result in words
Aurora A = molecular target: T1, Aurora A (Homo sapiens, UniProt O14965); assay: HTRF kinase assay, Aurora A; type: biochemical; conditions: 1 μM compound
T1 construct: purchased Millipore (Billerica, Mass.)
T1 sequence (O14965 1-403): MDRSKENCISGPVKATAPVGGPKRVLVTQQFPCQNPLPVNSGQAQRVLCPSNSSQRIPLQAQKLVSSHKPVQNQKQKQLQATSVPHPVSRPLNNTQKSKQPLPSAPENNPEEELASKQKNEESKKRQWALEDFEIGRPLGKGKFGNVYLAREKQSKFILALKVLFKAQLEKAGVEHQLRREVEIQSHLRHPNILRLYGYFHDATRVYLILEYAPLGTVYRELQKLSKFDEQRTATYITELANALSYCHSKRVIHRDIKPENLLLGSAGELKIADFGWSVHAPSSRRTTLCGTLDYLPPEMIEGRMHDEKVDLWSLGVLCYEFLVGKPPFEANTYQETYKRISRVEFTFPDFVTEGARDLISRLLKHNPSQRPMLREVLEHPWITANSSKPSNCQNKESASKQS
Description: (§1) The inhibitory activities of indazole derivatives against GSK-3 β and Aurora A were analyzed by HTRF (homogeneous time-resolved fluorescence) assay. The HTRF assay is an assay method that detects the phosphorylation of peptide substances in the presence of ATP. Phosphorylated substances were detected by TR-FRET (Time Resolved-Fluorescence Resonance) signals. Recombinant GSK-3 β and Aurora A kinase were purchased from Millipore (Billerica, Mass.). Using a HTRF KinEASE kit (Cisbio), the assay was performed. Each of GSK-3 β and Aurora A was treated with 1 μM of each indazole compound, and the degree of inhibition of phosphorylation was analyzed. The assay was composed of a compound-enzyme mixture and peptide substance dissolved in kinase reaction buffer (250 mM HEPES (pH 7.0), 0.5 mM orthovanadate, 0.05% BSA, 0.1% NaN3). After addition of detection buffer, the TR-FRET signal was detected by an EnVision multi-label reader.

GSK-3β = molecular target: T2, GSK-3β (Homo sapiens, UniProt P49841); assay: HTRF kinase assay, GSK-3β; type: biochemical; conditions: 1 μM compound
T2 construct: purchased Millipore (Billerica, Mass.)
Description: as §1

T2 sequence (P49841 whole entry, species assumed): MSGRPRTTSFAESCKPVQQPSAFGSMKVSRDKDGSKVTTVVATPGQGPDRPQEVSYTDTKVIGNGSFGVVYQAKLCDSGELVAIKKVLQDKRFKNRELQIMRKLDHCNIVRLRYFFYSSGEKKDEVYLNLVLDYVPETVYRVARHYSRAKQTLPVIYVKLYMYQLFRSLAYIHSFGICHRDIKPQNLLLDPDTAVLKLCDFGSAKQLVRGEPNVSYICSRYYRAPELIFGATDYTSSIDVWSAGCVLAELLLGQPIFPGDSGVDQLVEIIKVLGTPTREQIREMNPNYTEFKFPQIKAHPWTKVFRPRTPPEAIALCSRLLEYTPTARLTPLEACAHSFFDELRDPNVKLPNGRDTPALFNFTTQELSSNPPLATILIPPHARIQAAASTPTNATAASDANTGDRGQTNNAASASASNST

SMILES: O=C(O)c1ccc2[nH]nc(C(=NO)Nc3ccccc3)c2c1 [LDD-1986, 3-(N′-hydroxy-N-phenylcarbamimidoyl)-1H-indazole-5-carboxylic Acid]
- IC50 (C2C12 myoblasts; Mus musculus, 48 h): > 10 µM
- Alizarin red staining (osteoblasts) [1]: +
- Oil red O staining (adipocytes) (adipocytes): ++
- reprogramming potential in differentiation into adipocytes (adipocytes): strong reprogramming potential

SMILES: COC(=O)c1ccc2[nH]nc(C(=NO)Nc3ccccc3)c2c1 [LDD-2196, Methyl-3-(N′-hydroxy-N-phenylcarbamimidoyl)-1H-indazole-5-carboxylate]
- IC50 (C2C12 myoblasts; Mus musculus, 48 h): > 10 µM

SMILES: c1nc2nc(Nc3ccc(N4CCOCC4)cc3)nc(NC3CCCCC3)c2[nH]1 [Reversine, reference compound]
- cytotoxicity (C2C12 myoblasts): high cytotoxicity
- reprogramming potential in differentiation into osteoblasts [1]: strong reprogramming potential
- Alizarin red staining (osteoblasts) [1]: ++
- Oil red O staining (adipocytes) (adipocytes): ++

SMILES: O=C(O)c1ccc2[nH]nc(C(=NO)Nc3ccc(F)cc3)c2c1 [LDD-2197, 3-N-(4-fluorophenyl)-N′-hydroxycarbamimidoyl-1H-indazole-5-carboxylic Acid]
- IC50 (C2C12 myoblasts): > 10 µM

SMILES: COCCN1CCN(C(=O)c2ccc3[nH]nc(C(=NO)Nc4ccccc4)c3c2)CC1 [LDD-1988, N′-hydroxy-5-(4-(2-methoxyethyl)piperazine-1-carbonyl)-N-phenyl-1H-indazole 3-carboximidamide]
- IC50 (C2C12 myoblasts; Mus musculus, 48 h): > 10 µM
- Alizarin red staining (osteoblasts) [1]: +
- Oil red O staining (adipocytes) (adipocytes): ++
- reprogramming potential in differentiation into adipocytes (adipocytes): strong reprogramming potential

SMILES: O=C(c1ccc2[nH]nc(NC(=NO)c3ccccc3)c2c1)N1CCCCC1 [LDD-1945, N′-hydoxy-N-(5-(piperidine-1-carbonyl)-111-indazol-3-yl)benzimidamide]
- IC50 (C2C12 myoblasts): > 10 µM
- reprogramming potential in differentiation into osteoblasts [1]: strong reprogramming potential
- Alizarin red staining (osteoblasts) [1]: ++

SMILES: O=C1Nc2cc(Br)ccc2/C1=C1/Nc2ccccc2/C1=N\O [BIO, reference compound]
- cytotoxicity (C2C12 myoblasts): high cytotoxicity

SMILES: O=C(O)c1ccc2[nH]nc(NC(=NO)c3ccccc3)c2c1 [LDD-2194, 3-(N′-hydroxybenzimidamido)-1H-indazole-5-carboxylic Acid]
- IC50 (C2C12 myoblasts; Mus musculus, 48 h): > 10 µM

SMILES: O=C(Nc1n[nH]c2ccc(C(=O)N3CCCCC3)cc12)c1ccccc1 [LDD-1820, N-(5-(piperidine-1-carbonyl)-1H-indazol-3-yl)benzamide]
- inhibition at 1 µM (Aurora A; read-out: % Inhibition at 1 μM concentration, Aurora-A): 32.5%
- Alizarin red staining (osteoblasts) [1]: −
- inhibition at 1 µM (GSK-3β; read-out: % Inhibition at 1 μM concentration, GSK-3β): 0.5%

SMILES: O=C(c1ccc2[nH]nc(C(=NO)Nc3ccccc3)c2c1)N1CCCCC1 [LDD-1821, N′-hydroxy-N-phenyl-5-(piperidine-1-carbonyl)-1H-indazole-3-carboxamide]
- IC50 (C2C12 myoblasts): > 10 µM
- % Inhibition at 1 μM concentration, Aurora-A (Aurora A; 1 µM): no inhibitory activity
- % Inhibition at 1 μM concentration, Aurora-A (Aurora A; listed as LDD1821, 1 µM): 0%
- reprogramming potential in differentiation into osteoblasts [1]: strong reprogramming potential
- Alizarin red staining (osteoblasts) [1]: ++
- Oil red O staining (adipocytes) (adipocytes): ++
- reprogramming potential in differentiation into adipocytes (adipocytes): strong reprogramming potential
- % Inhibition at 1 μM concentration, GSK-3β (GSK-3β; 1 µM): no inhibitory activity
- % Inhibition at 1 μM concentration, GSK-3β (GSK-3β; listed as LDD1821, 1 µM): 0.2%

SMILES: O=[N+]([O-])c1ccc2[nH]nc(NS(=O)(=O)c3ccccc3)c2c1 [LDD-1667, N-(5-nitro-111-indazol-3-yl)benzenesulfonamide]
- % Inhibition at 1 μM concentration, Aurora-A (Aurora A): 0%
- Alizarin red staining (osteoblasts) [1]: −
- % Inhibition at 1 μM concentration, GSK-3β (GSK-3β): 0%

SMILES: COC(=O)c1ccc2[nH]nc(NC(=NO)c3ccccc3)c2c1 [LDD-2195, Methyl-3-(N′-hydroxybenzimidamido)-1H-indazole-5-carboxylate]
- IC50 (C2C12 myoblasts; Mus musculus, 48 h): > 10 µM

SMILES: O=C(c1ccc2[nH]nc(C(=NO)Nc3ccc(F)cc3)c2c1)N1CCCCC1 [LDD-2199, N-(4-fluorophenyl)-N′-hydroxy-5-(piperidine-1-carbonyl)-1H-indazole-3-carboxamide]
- IC50 (C2C12 myoblasts): > 10 µM
- reprogramming potential in differentiation into osteoblasts [1]: strong reprogramming potential
- Alizarin red staining (osteoblasts) [1]: ++

SMILES: O=C(Nc1n[nH]c2ccc([N+](=O)[O-])cc12)c1ccccc1 [LDD-1664, N-(5-nitro-1(2)H-indazol-3-yl)-benzamide]
- % Inhibition at 1 μM concentration, Aurora-A (Aurora A): 0%
- reprogramming potential in differentiation into osteoblasts [1]: strong reprogramming potential
- Alizarin red staining (osteoblasts) [1]: ++
- % Inhibition at 1 μM concentration, GSK-3β (GSK-3β): 6.5%

SMILES: CCCN1CCN(C(=O)c2ccc3[nH]nc(C(=NO)Nc4ccccc4)c3c2)CC1 [LDD-1987, N′-hydroxy-N-phenyl-5-(4-propylpiperazine-1-carbonyl)-1H-indazole-3-carboxamide]
- IC50 (C2C12 myoblasts): > 10 µM
- Alizarin red staining (osteoblasts) [1]: +
- Oil red O staining (adipocytes) (adipocytes): ++
- reprogramming potential in differentiation into adipocytes (adipocytes): strong reprogramming potential

SMILES: COc1ccc(NC(=NO)c2n[nH]c3ccc(C(=O)O)cc23)cc1 [LDD-2198, 3-(N′-hydroxy-N-(4-methoxyphenyl)carbaminidoyl)-1H-indazole-5-carboxylic Acid]
- IC50 (C2C12 myoblasts): > 10 µM

SMILES: COc1ccc(NC(=NO)c2n[nH]c3ccc(C(=O)N4CCCCC4)cc23)cc1 [LDD-2200, N′-hydroxy-N-(4-methoxyphenyl)-5-(piperidine-1-carbonyl)-1H-indazole-3-carboxamide]
- IC50 (C2C12 myoblasts): > 10 µM
- reprogramming potential in differentiation into osteoblasts [1]: strong reprogramming potential
- Alizarin red staining (osteoblasts) [1]: ++
